Measurements published in US7148229B2, “Sulfonamide substituted xanthine derivatives” (Hoffman-La Roche Inc., priority 2003, dated 2006).

Molecular target: T1, recombinant human cytosolic PEPCK (GST-PEPCK) (Homo sapiens, UniProt P35558)
T1 construct: made in house; host or cells: E. coli
T1 sequence (P35558 1-622): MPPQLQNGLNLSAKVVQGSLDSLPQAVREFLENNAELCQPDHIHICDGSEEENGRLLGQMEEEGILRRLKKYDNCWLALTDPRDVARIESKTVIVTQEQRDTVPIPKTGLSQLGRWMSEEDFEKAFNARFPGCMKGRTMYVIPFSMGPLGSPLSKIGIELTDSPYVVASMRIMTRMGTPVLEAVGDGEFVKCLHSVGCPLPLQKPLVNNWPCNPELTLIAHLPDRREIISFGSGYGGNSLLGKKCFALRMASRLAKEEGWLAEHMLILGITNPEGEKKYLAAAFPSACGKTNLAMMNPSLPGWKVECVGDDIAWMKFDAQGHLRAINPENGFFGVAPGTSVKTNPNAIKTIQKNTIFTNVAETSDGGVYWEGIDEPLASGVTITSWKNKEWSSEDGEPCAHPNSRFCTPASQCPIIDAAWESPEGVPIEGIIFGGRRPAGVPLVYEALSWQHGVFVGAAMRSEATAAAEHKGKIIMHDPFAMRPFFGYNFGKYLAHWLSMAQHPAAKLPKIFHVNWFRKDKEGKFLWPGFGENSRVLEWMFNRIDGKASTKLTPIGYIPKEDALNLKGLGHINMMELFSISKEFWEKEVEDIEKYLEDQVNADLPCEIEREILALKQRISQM
Test: PEPCK enzyme assay (coupled to pyruvate kinase / lactate dehydrogenase, absorbance at 340 nm)
Format: biochemical
Details: in vitro PEPCK enzymatic assay; GTP at 3 fold and OAA at 10 fold Km; final DMSO 10%; room temperature, twenty minutes
Experimental: E. coli cells expressing GST-PEPCK were suspended in 5 volumes of lysis buffer (50 mM Tris-hydroxymethyl aminomethyl (TRIS), 150 mM sodium chloride (NaCl), 10 mM ethylene-diametetraacetic acid (EDTA), 5 mM dithiothreitol(DTT), 1% Nonidet P-40, pH 7.4) in the presence of protease inhibitors, incubated with lysozyme at 200 micrograms/ml for 30 min. at room temperature, and sonicated 4×30 seconds at 4 degrees C. After centrifugation at 12,000×g for 20 min. to remove insoluble material, the supernatant was loaded onto glutathione Sepharose (Pharmacia), washed with lysis buffer followed by washing with lysis buffer in the absence of NP-40. GST-PEPCK was eluted with the same buffer containing 20 mM glutathione. The eluted protein was concentrated and dialyzed against 25 mM Hepes(N-[2-hydroxyethyl]piperazine-N′[2-ethanesulfonic acid), 150 mM NaCl, 2.5 mM EDTA, 5 mM DTT, 30% glycerol, pH 7.4, and stored at −20° C.
The inhibitory effect of the compounds of the present invention on PEPCK enzymatic activity was determined using recombinant human cytosolic PEPCK, expressed and purified from E.coli as a GST-fusion. Guanosine triphosphate (GTP) and manganese dependent PEPCK enzyme activity catalyzed the decarboxylation of oxalacetate leading to the formation of guanosine diphosphate (GDP) and phosphoenol pyruvate (PEP). This reaction is coupled to pyruvate kinase and lactate dehydrogenase catalyzed reactions and the overall reaction rate determined by measuring the change in absorbance at 340 nm (Chang, H. C. and Lane M. D., J. Biol. Chem. 241:2413–2420, 1966). The following modifications were made to the protocol: 2.5 μg of recombinant, human cytosolic glutathione-S-transferase (GST)-PEPCK was added to a reaction mixture at room temperature which contained 0.3 mM GTP, 0.3 mM oxaloacetate (OAA), 3 mM magnesium chloride (MgCl2), 0.075 mM manganese chloride (MnCl2), 30 mM potassium phosphates (KPO4), pH 7.6, 1 mM dithiothreitol (DTT), 0.2 mM adenosine diphosphate (ADP), 1 mM nicotinamide adenine dinucleotide, reduced form (NADH), 0.9 Units/ml each of pyruvate kinase and lactate dehydrogenase and 1 mg/ml bovine serum albumin (BSA). Test compounds were added such that final concentration of DMSO was 10%. Reactions were run for twenty minutes.
Km values for GTP and OAA were determined according to Michelis-Menton conditions as described in Comish-Bowden (Fundamentals of Enzyme Kinetics, 1995) in essentially the coupled assay conditions described above. […] Test compounds were added to reactions over a range of concentrations and IC50's were calculated from plots of inhibitor concentration versus enzyme rate. This method of determination of IC50 values is equally applicable to calculations based on PEPCK cellular assay.

Question: For `CCCCn1c(=O)n(Cc2ccccc2)c(=O)c2[nH]c(Cc3ccc(NS(C)(=O)=O)cc3)nc21` [Example 24, N-[4-(1-Benzyl-3-butyl-2,6-dioxo-2,3,6,7-tetrahydro-1H-purin-8-ylmethyl)-phenyl]-methanesulfonamide], which IC50 is on record?
Answer: Its IC50 is 7550 nM.

Question: `CCCCn1c(=O)n(Cc2ccccc2F)c(=O)c2[nH]c(Cc3ccc(NS(=O)(=O)c4c(C)nn(C)c4Cl)cn3)nc21` [Example 25, 5-Chloro-1,3-dimethyl-1H-pyrazole-4-sulfonic acid {6-[3-butyl-1-(2-fluoro-benzyl)-2,6-dioxo-2,3,6,7-tetrahydro-1H-purin-8-ylmethyl]-pyridin-3-yl}-amide] was tested. Which IC50 did it give?
Answer: Its IC50 is 880 nM.

Question: How did the IC50 turn out when `Cc1nn(C)c(Cl)c1S(=O)(=O)Nc1ccc(Cc2nc3c([nH]2)c(=O)n(Cc2ccccc2F)c(=O)n3CC2CCC2)nc1` [Example 26, 5-Chloro-1,3-dimethyl-1H-pyrazole-4-sulfonic acid {6-[3-cyclobutylmethyl-1-(2-fluoro-benzyl)-2,6-dioxo-2,3,6,7-tetrahydro-1H-purin-8-ylmethyl]-pyridin-3-yl}-amide] was run?
Answer: The IC50 was 980 nM.

Question: Which IC50 does the source give for `Cc1nn(C)cc1S(=O)(=O)N(C)c1ccc(Cc2nc3c([nH]2)c(=O)n(Cc2ccccc2F)c(=O)n3CC2CC2)cc1` [Example 27, 1,3-Dimethyl-1H-pyrazole-4-sulfonic acid {4-[3-cyclopropylmethyl-1-(2-fluoro-benzyl)-2,6-dioxo-2,3,6,7-tetrahydro-1H-purin-8-ylmethyl]-phenyl}-methyl-amide] here?
Answer: The IC50 was 1450 nM.

Question: For `CCCCn1c(=O)n(Cc2ccccc2F)c(=O)c2[nH]c(Cc3ccc(S(=O)(=O)Nc4ccccn4)cc3)nc21` [Example 28, 4-[3-Butyl-1-(2-fluoro-benzyl)-2,6-dioxo-2,3,6,7-tetrahydro-1H-purin-8-ylmethyl]-N-pyridin-2-yl-benzenesulfonamide], which IC50 is on record?
Answer: Its IC50 is 2400 nM.

Question: With `CCCCn1c(=O)n(Cc2ccccc2F)c(=O)c2[nH]c(Cc3ccc(S(=O)(=O)Nc4ccncc4)cc3)nc21` [Example 29, 4-[3-Butyl-1-(2-fluoro-benzyl)-2,6-dioxo-2,3,6,7-tetrahydro-1H-purin-8-ylmethyl]-N-pyridin-4-yl-benzenesulfonamide] as the molecule, how does the IC50 read?
Answer: Its IC50 is 2400 nM.

Question: `CCCCn1c(=O)n(Cc2ccccc2F)c(=O)c2[nH]c(Cc3ccc(S(=O)(=O)Nc4cccnc4)cc3)nc21` [Example 30, 4-[3-Butyl-1-(2-fluoro-benzyl)-2,6-dioxo-2,3,6,7-tetrahydro-1H-purin-8-ylmethyl]-N-pyridin-3-yl-benzenesulfonamide] was tested. Which IC50 did it give?
Answer: Its IC50 is 4100 nM.

Question: `CCCCn1c(=O)n(Cc2ccccc2F)c(=O)c2[nH]c(Cc3ccc(S(=O)(=O)Nc4ncccn4)cc3)nc21` [Example 31, 4-[3-Butyl-1-(2-fluoro-benzyl)-2,6-dioxo-2,3,6,7-tetrahydro-1H-purin-8-ylmethyl]-N-pyrimidin-2-yl-benzenesulfonamide] was tested. Which IC50 did it give?
Answer: Its IC50 is 6350 nM.

Question: For `CCCCn1c(=O)n(Cc2ccccc2F)c(=O)c2[nH]c(Cc3ccc(S(=O)(=O)Nc4c(C)nn(C)c4C)cc3)nc21` [Example 32, 4-[3-Butyl-1-(2-fluoro-benzyl)-2,6-dioxo-2,3,6,7-tetrahydro-1H-purin-8-ylmethyl]-N-(1,3,5-trimethyl-1H-pyrazol-4-yl)-benzenesulfonamide], which IC50 is on record?
Answer: The IC50 was 6450 nM.
